Results taken from the NIST ThermoML archive (doi:10.1016/j.tca.2005.10.007).

Test: xn = mol fraction of the nth substance listed
Conditions: 101 kPa, Liquid, Vibrating tube method

CC(O)CN (centres undefined) [1-amino-2-propanol] + O
mass density [kg/m3]
Conditions	318.15 K	323.15 K	328.15 K	333.15 K	338.15 K
x2 = 0.0438	–	938.15	934	929.82	925.59
x2 = 0.0801	–	939.79	935.65	931.47	927.26
x2 = 0.1269	–	942.24	938.11	933.95	929.74
x2 = 0.1584	–	943.75	939.62	935.46	931.25
x2 = 0.2003	–	945.98	941.87	937.7	933.51
x2 = 0.2999	–	951.92	947.82	943.67	–
x2 = 0.3498	–	955.13	951.03	946.88	–
x2 = 0.3999	–	958.3	954.21	950.06	–
x2 = 0.4499	–	961.75	957.65	953.5	–
x2 = 0.4968	–	965.17	961.07	956.92	–
x2 = 0.5122	970.43	966.38	962.28	958.13	–
x2 = 0.5501	973.11	969.05	964.95	960.8	–
x2 = 0.6001	977.04	972.99	968.89	964.74	–
x2 = 0.6501	980.76	976.72	972.63	968.49	–
x2 = 0.7	984.34	980.34	976.28	972.17	–
x2 = 0.7501	987.6	983.67	979.68	975.64	–
x2 = 0.8	990.02	986.23	982.39	978.48	–
x2 = 0.84	991.29	987.71	984.06	980.33	–
x2 = 0.88	991.5	988.22	984.85	981.39	–
x2 = 0.92	990.94	988.05	985.04	981.92	–
x2 = 0.96	990.01	987.53	984.91	982.14	–
